Measurements published in ChEMBL document CHEMBL1201862, “PubChem BioAssay data set” (2004).
Activity calls are given as the source filed them.

How the values were obtained:
[1] = Luminescent dose response cell-based high throughput screening assay for inhibitors of the Janus kinase 2 mutant JAK2V617F. [Related pubchem assays: 1446 (Primary screen.), 1521 (Confirmation assay.), 1486 (Counter screen.)]; assay type: functional
Vero [2] = assay: cells; assay type: functional, cell-based; details: Chlorocebus sabaeus
Vero [3] = assay: cells; assay type: functional; details: Chlorocebus sabaeus
CAAX prenyl protease 2 = biological target: T1, CAAX prenyl protease 2 (Saccharomyces cerevisiae S288c, UniProt Q03530); assay type: biochemical
T1 sequence (Q03530 whole entry): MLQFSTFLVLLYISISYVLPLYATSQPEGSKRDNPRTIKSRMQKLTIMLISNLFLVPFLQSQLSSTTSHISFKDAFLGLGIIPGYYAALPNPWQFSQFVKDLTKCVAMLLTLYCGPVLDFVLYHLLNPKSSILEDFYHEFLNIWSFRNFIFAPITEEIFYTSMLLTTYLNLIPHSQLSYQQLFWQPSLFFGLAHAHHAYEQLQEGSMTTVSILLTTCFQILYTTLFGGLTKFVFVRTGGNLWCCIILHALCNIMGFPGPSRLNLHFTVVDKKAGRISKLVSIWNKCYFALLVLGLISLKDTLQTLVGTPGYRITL

CAAX prenyl protease 1 = CAAX prenyl protease 1 (Saccharomyces cerevisiae S288c, UniProt P47154); assay: yeast CAAX protease Ste24 inhibition – biochemical, S. cerevisiae, plate reader, cherry-pick, dose response (AID 488815)
Galanin receptor type 2 = Galanin receptor type 2 (Homo sapiens, UniProt O43603); assay: Dose Response cell-based high-throughput screening assay to identify antagonists of galanin receptor 2 (GALR2). [Related pubchem assays: 828, 866 ]; assay type: functional
[4] = Luminescence Cell-Based Dose Retest to Confirm Inhibitors of Cancer Stem Cells. [Related pubchem assays (depositor defined):AID2717, AID2721]; assay type: functional; details: Homo sapiens
[5] = viability loss of HMLE_sh_eGFP cells – cell-based, luminescence, counter-screen for HMLE_sh_ECad selective toxicity project, dose response (AID 463074); assay type: functional, Homo sapiens;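 note: HMLE human mammary epithelial cells expressing control shRNA against eGFP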
INS1 = assay: INS-1E survival protection against cytokine death – cell-based, luminescence, retest, dose response (AID 449756); assay type: functional; details: Rattus norvegicus, INS1;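 note: cell death triggered by IL-1 beta plus TNF-alpha plus IFN-gamma mixture; protective hits raise ATP signal compared with cytokine alone wells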
Protein Wnt-3a = Protein Wnt-3a (Mus musculus, UniProt P27467); assay: antagonism of Wnt3a pathway luciferase reporter – Wnt-LIGHT cells, luminescence, selectivity assay for Gli-SUFU antagonist project, dose response (AID 651570); assay type: functional; details: read-out: IC50_Mean;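 note: Wnt-LIGHT reporter cells stimulated with conditioned medium from Wnt3a-producing cells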
Galanin receptor type 3 = biological target: T2, Galanin receptor type 3 (Homo sapiens, UniProt O60755); assay: Fluorescence-based cell-based primary high throughput dose response assay to identify antagonists of the Galanin Receptor 3 (GalR3).; assay type: functional
T2 sequence (O60755 whole entry): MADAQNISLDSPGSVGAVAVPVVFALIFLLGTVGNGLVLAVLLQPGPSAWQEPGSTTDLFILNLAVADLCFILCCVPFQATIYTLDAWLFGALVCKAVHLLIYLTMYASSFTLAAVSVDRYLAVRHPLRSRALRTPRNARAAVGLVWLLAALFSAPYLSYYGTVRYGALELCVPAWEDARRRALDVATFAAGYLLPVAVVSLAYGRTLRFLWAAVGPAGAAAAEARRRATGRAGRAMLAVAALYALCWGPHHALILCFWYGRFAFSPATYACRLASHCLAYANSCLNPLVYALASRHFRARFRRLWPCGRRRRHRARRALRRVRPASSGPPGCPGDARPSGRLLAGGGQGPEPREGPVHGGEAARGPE

cells = assay type: functional, cell-based; details: HEK-CNG
[6] = biological target: G-protein coupled receptor 35 (Homo sapiens, UniProt Q9HC97); assay: SAR Analysis for the identification of Selective Antagonists of ERK1/2 Activity in GPR35-Overexpressing U2OS Cells. [Related pubchem assays: 2079, 2058 ]; assay type: functional, cell-based
[7] = biological target: T3, Tyrosine-protein phosphatase non-receptor type 12 (Homo sapiens, UniProt Q05209); assay: SAR Selectivity Analysis of small molecule inhibitors of PEST using pCAP in a fluorescence assay. [Related pubchem assays (depositor defined):AID1779, AID1784, AID2135]; assay type: functional
T3 sequence (Q05209 whole entry): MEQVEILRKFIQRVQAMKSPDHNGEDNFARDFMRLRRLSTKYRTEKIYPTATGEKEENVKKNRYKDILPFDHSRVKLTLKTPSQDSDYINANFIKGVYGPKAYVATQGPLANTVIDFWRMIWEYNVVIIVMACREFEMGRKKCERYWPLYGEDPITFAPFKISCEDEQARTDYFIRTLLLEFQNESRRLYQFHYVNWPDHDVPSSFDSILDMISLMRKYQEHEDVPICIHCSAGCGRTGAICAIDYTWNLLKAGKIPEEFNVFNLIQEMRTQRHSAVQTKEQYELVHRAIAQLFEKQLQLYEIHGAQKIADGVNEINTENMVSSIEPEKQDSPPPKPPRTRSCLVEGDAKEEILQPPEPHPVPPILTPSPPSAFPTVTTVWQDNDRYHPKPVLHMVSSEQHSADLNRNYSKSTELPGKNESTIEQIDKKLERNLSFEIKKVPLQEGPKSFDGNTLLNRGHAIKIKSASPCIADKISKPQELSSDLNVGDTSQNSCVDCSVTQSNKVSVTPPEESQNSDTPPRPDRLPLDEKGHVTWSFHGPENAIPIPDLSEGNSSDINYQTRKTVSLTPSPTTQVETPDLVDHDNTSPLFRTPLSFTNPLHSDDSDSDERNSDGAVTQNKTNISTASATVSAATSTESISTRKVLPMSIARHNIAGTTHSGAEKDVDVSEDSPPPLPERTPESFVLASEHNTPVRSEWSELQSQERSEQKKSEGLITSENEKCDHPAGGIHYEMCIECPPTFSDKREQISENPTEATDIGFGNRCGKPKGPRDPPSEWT

[8] = biological target: T4, Tyrosine-protein phosphatase non-receptor type 22 (Homo sapiens, UniProt Q9Y2R2); assay: SAR LYP1 Fluorescent Assay using OMFP substrate for In Vitro dose response studies - Set 3. [Related pubchem assays (depositor defined):AID1779, AID1784, AID2140, AID2686]; assay type: functional
T4 sequence (Q9Y2R2 whole entry): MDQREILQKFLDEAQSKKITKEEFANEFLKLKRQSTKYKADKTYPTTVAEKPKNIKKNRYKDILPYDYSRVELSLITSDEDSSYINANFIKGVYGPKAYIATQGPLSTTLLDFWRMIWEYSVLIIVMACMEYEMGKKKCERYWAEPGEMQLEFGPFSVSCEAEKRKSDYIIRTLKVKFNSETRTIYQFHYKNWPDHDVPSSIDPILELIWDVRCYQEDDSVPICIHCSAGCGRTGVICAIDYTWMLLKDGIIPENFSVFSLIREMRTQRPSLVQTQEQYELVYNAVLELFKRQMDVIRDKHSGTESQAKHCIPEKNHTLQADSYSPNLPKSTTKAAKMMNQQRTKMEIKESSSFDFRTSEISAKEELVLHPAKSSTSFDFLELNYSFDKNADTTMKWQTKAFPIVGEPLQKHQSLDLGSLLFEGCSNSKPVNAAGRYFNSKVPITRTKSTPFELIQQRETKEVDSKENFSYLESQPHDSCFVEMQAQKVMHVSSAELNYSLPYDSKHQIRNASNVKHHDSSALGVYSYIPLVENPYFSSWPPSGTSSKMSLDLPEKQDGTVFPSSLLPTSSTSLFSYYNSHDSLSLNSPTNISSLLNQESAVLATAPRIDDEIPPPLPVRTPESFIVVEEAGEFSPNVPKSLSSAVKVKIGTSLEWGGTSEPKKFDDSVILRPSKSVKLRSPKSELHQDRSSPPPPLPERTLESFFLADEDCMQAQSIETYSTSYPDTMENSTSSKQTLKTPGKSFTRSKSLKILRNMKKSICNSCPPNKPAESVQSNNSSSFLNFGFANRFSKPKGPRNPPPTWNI

[9] = biological target: T5, Tyrosine-protein phosphatase non-receptor type 7 (Homo sapiens, UniProt P35236); assay: inhibition of hematopoietic tyrosine phosphatase HePTP – biochemical, set 2, SAR follow-up (AID 449736); assay type: functional
T5 sequence (P35236 whole entry): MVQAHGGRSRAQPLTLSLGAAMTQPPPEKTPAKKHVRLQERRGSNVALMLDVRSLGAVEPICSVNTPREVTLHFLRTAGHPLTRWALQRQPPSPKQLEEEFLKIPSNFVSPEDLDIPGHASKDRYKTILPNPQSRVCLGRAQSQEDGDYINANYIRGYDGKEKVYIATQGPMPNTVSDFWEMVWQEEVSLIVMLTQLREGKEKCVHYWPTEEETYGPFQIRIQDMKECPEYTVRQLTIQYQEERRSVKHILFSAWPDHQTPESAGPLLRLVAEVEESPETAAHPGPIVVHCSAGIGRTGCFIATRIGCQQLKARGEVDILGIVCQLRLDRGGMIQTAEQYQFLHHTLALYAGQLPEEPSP

[10] = biological target: T4, Tyrosine-protein phosphatase non-receptor type 22; assay: inhibition of lymphoid tyrosine phosphatase LYP – biochemical, pCAP fluorogenic substrate, fluorescence, set 3, SAR follow-up (AID 449727); assay type: functional
[11] = biological target: G-protein coupled receptor 55 (Homo sapiens, UniProt Q9Y2T6); assay: blockers of GPR55 signalling, imaged – imaging, image-based, counter-screen for GPR35 antagonist project, SAR follow-up (AID 2397); assay type: functional
HEK293 [12] = assay: inhibition of NOD1-driven NF-kB reporter – cell-based, luminescence, uHTS, primary screen (AID 1578); assay type: functional; details: Homo sapiens
HEK293 [13] = assay: cells; assay type: functional, cell-based; details: Homo sapiens
HEK293 [14] = assay: cells; assay type: functional, cell-based; details: Homo sapiens; remark: listed apart in the source
HEK293 [15] = assay: NOD2 signaling inhibitors in MDP-stimulated cells, cell-based, uHTS, luminescence (AID 2001); assay type: functional; details: Homo sapiens
Tumor necrosis factor = Tumor necrosis factor (Homo sapiens, UniProt P01375); assay: analog potency on TNFa NF-kB signaling – cell-based, revised, SAR follow-up (AID 2337); assay type: functional
[16] = biological target: Nucleotide-binding oligomerization domain-containing protein 1 (Homo sapiens, UniProt Q9Y239); assay: blockers of NOD1 pathway activity – revised, SAR follow-up (AID 2333); assay type: functional
[17] = biological target: T6, COUP transcription factor 2 (Homo sapiens, UniProt P24468); assay: Luminescence-based cell-based high throughput dose response assay to identify inhibitors of COUP-TFII (NR2F2).; assay type: functional;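 note: HEK293 cells transiently cotransfected with COUP-TFII expression vector and reporter; luciferase reporter luminescence driven by COUP-TFII from the pX2-168 reporter plasmid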
T6 sequence (P24468 whole entry): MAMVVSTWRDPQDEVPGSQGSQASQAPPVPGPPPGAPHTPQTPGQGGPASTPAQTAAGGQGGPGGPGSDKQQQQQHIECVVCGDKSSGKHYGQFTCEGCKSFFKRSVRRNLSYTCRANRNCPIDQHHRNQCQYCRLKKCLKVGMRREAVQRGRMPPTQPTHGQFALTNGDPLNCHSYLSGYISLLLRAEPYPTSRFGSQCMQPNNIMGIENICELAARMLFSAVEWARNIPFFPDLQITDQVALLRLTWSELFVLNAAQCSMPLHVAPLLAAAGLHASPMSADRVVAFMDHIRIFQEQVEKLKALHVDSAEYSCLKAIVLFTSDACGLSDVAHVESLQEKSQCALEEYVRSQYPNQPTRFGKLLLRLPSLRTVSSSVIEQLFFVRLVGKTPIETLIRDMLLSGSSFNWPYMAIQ

HEK293 [18] = assay: cells; details: Homo sapiens
SUMO E1/E2 = SUMO E1/E2 (Homo sapiens, UniProt P63279+Q9UBE0+Q9UBT2); assay: SAR analysis of SUMOylation using HTRF in an in-Vitro dose response assay. [Related pubchem assays (depositor defined):AID2006, AID2011, AID2018, AID2069, AID2658]; assay type: functional
Chain of SUMO E1/E2 (Q9UBE0 whole entry): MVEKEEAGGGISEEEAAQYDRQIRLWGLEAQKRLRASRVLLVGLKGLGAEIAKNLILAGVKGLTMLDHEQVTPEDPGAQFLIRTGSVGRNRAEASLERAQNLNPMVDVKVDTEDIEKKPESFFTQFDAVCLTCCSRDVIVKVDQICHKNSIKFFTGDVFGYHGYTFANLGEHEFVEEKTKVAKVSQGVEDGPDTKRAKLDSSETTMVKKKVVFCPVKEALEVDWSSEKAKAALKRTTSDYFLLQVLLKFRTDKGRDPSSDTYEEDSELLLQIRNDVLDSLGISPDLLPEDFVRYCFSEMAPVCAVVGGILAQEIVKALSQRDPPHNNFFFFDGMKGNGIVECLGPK
Chain of SUMO E1/E2 (Q9UBT2 whole entry): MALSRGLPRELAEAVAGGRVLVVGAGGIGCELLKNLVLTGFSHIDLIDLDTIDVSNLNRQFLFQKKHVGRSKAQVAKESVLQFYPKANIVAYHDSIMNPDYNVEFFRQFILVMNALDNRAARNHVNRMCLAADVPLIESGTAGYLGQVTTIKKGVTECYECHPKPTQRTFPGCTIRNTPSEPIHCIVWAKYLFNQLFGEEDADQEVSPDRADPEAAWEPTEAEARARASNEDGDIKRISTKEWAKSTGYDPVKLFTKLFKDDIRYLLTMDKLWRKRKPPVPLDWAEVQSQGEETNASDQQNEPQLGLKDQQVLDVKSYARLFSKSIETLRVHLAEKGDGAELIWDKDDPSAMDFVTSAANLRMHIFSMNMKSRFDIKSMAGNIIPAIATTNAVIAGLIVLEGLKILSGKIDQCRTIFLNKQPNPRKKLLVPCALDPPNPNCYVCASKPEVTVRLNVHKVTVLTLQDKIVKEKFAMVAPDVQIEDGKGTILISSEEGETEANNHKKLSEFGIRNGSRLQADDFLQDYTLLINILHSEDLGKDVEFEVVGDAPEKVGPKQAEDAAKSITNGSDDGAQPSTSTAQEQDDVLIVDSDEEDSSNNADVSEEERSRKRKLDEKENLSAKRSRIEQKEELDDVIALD
Chain of SUMO E1/E2 (P63279 whole entry): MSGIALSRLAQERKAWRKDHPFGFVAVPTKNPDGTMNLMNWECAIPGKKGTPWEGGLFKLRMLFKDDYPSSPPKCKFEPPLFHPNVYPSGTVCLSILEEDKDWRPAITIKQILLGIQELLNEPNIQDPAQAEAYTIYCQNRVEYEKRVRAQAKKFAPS

Chain of Nucleotide-binding oligomerization domain-containing protein 1 (Q9Y239 whole entry, the tested form may be a part): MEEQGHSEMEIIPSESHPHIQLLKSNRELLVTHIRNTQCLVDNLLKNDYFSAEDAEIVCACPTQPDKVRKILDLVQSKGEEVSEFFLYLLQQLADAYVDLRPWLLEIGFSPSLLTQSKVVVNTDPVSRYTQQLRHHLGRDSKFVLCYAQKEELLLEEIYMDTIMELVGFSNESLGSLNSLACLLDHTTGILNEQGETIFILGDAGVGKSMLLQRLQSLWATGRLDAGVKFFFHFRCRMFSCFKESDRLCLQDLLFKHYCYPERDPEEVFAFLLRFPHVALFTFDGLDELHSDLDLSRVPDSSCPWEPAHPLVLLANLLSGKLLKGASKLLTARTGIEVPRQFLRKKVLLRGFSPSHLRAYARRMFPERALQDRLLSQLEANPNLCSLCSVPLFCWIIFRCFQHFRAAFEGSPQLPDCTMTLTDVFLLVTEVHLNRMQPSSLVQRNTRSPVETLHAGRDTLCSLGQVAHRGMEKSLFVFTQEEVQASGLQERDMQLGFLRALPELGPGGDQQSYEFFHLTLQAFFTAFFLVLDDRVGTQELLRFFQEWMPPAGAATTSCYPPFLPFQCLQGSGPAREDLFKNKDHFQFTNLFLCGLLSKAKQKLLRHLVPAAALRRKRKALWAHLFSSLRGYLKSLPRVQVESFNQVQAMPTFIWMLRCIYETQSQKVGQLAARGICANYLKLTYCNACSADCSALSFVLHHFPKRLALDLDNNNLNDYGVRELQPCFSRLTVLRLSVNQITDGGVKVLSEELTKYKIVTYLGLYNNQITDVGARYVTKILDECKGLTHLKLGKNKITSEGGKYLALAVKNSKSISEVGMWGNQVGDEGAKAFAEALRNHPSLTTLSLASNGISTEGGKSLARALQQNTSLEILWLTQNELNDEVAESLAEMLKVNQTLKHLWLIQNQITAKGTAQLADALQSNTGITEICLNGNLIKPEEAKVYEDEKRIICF
Chain of CAAX prenyl protease 1 (P47154 whole entry): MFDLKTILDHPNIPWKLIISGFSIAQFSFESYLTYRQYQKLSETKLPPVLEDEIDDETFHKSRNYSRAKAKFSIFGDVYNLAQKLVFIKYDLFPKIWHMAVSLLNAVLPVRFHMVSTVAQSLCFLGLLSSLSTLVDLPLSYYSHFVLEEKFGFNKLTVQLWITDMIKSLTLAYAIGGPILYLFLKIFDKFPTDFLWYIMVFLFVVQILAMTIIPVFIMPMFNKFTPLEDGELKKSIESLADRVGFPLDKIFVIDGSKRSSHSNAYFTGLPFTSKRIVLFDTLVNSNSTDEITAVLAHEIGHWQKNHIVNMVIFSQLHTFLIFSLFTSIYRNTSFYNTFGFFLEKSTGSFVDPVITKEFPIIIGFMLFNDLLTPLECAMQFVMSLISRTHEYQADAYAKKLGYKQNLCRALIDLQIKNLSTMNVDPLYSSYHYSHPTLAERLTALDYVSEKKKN
Chain of G-protein coupled receptor 35 (Q9HC97 whole entry): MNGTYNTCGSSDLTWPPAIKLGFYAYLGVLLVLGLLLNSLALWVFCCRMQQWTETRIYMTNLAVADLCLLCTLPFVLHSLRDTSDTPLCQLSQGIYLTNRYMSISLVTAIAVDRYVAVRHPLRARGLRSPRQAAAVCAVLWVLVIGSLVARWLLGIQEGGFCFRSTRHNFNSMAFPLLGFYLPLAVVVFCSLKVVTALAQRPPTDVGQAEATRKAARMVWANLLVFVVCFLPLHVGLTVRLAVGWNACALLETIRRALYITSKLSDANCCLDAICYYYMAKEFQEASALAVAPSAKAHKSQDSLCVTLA
Chain of Protein Wnt-3a (P27467 whole entry): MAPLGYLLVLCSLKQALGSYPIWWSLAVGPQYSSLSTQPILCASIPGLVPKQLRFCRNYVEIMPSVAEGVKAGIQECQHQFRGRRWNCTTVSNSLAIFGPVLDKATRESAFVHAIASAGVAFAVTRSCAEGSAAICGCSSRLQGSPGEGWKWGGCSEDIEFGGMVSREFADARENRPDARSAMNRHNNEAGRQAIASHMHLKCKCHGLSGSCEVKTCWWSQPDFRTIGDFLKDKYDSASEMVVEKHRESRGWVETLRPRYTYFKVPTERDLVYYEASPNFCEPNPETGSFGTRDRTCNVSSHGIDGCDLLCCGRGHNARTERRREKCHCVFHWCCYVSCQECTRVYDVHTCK
Chain of Tumor necrosis factor (P01375 whole entry, the tested form may be a part): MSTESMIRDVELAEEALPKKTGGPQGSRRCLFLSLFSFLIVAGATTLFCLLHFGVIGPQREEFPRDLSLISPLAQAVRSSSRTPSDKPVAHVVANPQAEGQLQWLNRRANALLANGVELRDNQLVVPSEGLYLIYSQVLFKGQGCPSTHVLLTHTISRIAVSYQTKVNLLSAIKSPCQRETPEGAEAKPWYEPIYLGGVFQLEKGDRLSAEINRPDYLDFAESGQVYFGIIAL
Chain of G-protein coupled receptor 55 (Q9Y2T6 whole entry): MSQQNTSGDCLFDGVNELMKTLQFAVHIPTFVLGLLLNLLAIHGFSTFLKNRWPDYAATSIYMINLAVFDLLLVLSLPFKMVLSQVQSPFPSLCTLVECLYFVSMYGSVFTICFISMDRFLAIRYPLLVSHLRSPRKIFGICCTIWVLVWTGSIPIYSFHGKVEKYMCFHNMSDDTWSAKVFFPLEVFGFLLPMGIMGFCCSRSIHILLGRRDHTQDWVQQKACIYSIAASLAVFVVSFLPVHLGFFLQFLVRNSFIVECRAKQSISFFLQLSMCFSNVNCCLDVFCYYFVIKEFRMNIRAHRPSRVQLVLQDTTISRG
Chain of Galanin receptor type 2 (O43603 whole entry): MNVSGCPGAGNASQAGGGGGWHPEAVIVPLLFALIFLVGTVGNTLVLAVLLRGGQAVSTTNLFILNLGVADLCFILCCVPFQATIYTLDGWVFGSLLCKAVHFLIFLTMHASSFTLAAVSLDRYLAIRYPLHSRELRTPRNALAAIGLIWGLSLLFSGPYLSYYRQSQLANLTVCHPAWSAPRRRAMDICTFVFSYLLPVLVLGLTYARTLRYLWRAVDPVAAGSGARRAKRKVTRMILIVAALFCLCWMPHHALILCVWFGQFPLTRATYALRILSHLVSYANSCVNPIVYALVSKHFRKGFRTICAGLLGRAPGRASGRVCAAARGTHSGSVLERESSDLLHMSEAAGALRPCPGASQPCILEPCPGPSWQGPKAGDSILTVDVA

With `COc1cc(/C=C2\COC/C(=C\c3ccc(O)c(OC)c3)C2=O)ccc1O` the IC50 [1] was 1.15 µM (active), the IC50 (Vero [2]) was > 25 µM (active) and the CC50 (Vero [3]) was 5.27 µM (active).
For `Cc1cc(C)c2cc(C#N)c(NCCCNC(=O)CCC(=O)O)nc2c1`, the AC50 (CAAX prenyl protease 2) was 36.9 µM (active) and the AC50 (CAAX prenyl protease 1) was 29.9 µM (active).
With `CCCCOc1[nH]cnc2c3cc(F)ccc3nc1-2` the IC50 (Galanin receptor type 2) was 472 µM (not active), the AC50 [4] was > 195 µM (inactive) and the AC50 [5] was 52.7 µM (active). The AC50 (INS1) was 4.34 µM (active), the IC50 (Protein Wnt-3a) was 1.56 µM (active) and the IC50 (Galanin receptor type 3) was 2.19 µM (active). The EC50 (cells) was > 29.9 µM (inactive).
For `COc1ccc(/C=C2\SC(=S)N(CCCC(=O)Nc3ccc(C(=O)O)c(O)c3)C2=O)cc1OC`, the IC50 [6] was 0.522 µM (active), the IC50 [7] was 17.9 µM (active) and the IC50 [8] was > 100 µM (inactive). For the same compound, the IC50 [9] was 9.74 µM (active), the IC50 [10] was 58.5 µM (active) and the IC50 [11] was > 32 µM (inactive).
With `CSc1ccccc1OCc1cc(C(=O)N2CCC(c3ccncc3)CC2)no1` the EC50 (HEK293 [12]) was 2.09 µM (active), the IC50 (HEK293 [13]) was 3.97 µM (active) and the IC50 (HEK293 [14]) was 8.95 µM (active). The IC50 (HEK293 [15]) was 5.04 µM (active), the IC50 (Tumor necrosis factor) was 3.22 µM (active) and the IC50 [16] was 3.18 µM (active). The IC50 [17] was 10.3 µM (inactive) and the IC50 (HEK293 [18]) was > 20 µM (inactive).
In the case of `Cc1ccc(N=Cc2sccc2C)cc1C`, the IC50 (SUMO E1/E2) is reported as > 100 µM (inactive).
